This assay deals with T1, PE-labeled human PD-L1-Ig binding to Jurkat cell line over-expressing human PD-1 (Jurkat-PD-1) (Homo sapiens, UniProt Q15116).
T1 construct: expressed in transfected cells; host or cells: Jurkat
In words: Jurkat-PD-1 Cell Binding High-Content Screening Assay (CBA): Method 1. To be noted: Jurkat-hPD-1 cells, PE-labeled PD-L1-Ig 20 nM final.

Setting [1] is: read-out: Jurkat HPDL1 PD1 IC50 (uM) (Method 1).

Where two headings read alike, the source gives them in different places. Numbered stars: 1 amine (or outer) side, 2 acyl side, 3 side chain; on linkers, the order of the positions; unused ones are H or OH. Bridge positions count the residues as written; N and C are the ends. Square brackets hold non-standard residues; d marks the D form. Peptide text beside a SMILES is read from it. * marks the point of attachment. ξ: configuration not given here. X33 = O=C([C@H](Cc1ccc(-c2cccc(Cl)c2)cc1)N[*:1])[*:2]; Phe(4-COOH) = N[C@@H](Cc1ccc(C(=O)O)cc1)C(=O)O; Bip = N[C@@H](Cc1ccc(-c2ccccc2)cc1)C(=O)O; pY = N[C@@H](Cc1ccc(OP(=O)(O)O)cc1)C(=O)O; Phe(3-Br) = N[C@@H](Cc1cccc(Br)c1)C(=O)O; Phe(4-CN) = N#Cc1ccc(C[C@H](N)C(=O)O)cc1; Phe(3-Me) = Cc1cccc(C[C@H](N)C(=O)O)c1; 4Pal = N[C@@H](Cc1ccncc1)C(=O)O; Cit = NC(=O)NCCC[C@H](N)C(=O)O; Thr(3ξ) = CC(O)[C@H](N)C(=O)O; Carboxymethyl = O=C(O)C*; NMeA = CN[C@@H](C)C(=O)O; Orn = NCCC[C@H](N)C(=O)O; Dab = NCC[C@H](N)C(=O)O; Dap = NC[C@H](N)C(=O)O

As a reminder, the IC50 is the concentration needed to halve the response being measured.

T1 sequence (Q15116 25-288): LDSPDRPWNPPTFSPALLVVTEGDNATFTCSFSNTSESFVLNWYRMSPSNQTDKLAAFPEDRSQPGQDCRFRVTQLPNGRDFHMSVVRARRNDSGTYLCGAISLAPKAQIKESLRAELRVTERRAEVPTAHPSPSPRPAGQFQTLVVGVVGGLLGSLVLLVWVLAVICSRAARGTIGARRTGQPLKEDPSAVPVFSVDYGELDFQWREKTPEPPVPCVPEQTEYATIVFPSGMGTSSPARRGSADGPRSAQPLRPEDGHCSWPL

For `CC(C)C[C@@H]1NC(=O)[C@H](Cc2c[nH]c3ccccc23)NC(=O)[C@H](CC(=O)O)NC(=O)[C@H](Cc2ccc(O)cc2)NC(=O)[C@H](Cc2ccccc2)NC(=O)CSC[C@@H](C(=O)N[C@@H](C)C(N)=O)NC(=O)[C@H](CO)NC(=O)[C@H](C(C)C)NC(=O)[C@H](CC(C)C)NC(=O)[C@H](CC(N)=O)NC(=O)[C@@H](C)NC(=O)[C@H](C)N(C)C(=O)[C@H](C(C)C)NC(=O)[C@H](Cc2ccc(-c3cccc(Cl)c3)cc2)NC1=O` [Compound 1774] ({CH2CO}-FYDWL[X33]V[NMeA][dA]NLVSCA-NH2; thioether N-14), under setting [1], the IC50 came out at 0.05 µM.

With `CC(C)C[C@@H]1NC(=O)[C@H](CCN)NC(=O)[C@@H](CC(C)C)NC(=O)[C@H](C)N(C)C(=O)[C@H](CCCNC(=N)N)NC(=O)[C@H](Cc2ccc(-c3ccccc3)cc2)NC(=O)[C@H](C(C)C)NC(=O)[C@H](Cc2cccc(Br)c2)NC(=O)[C@H](CC(=O)O)NC(=O)[C@H](Cc2ccc(O)cc2)NC(=O)[C@H](CC(N)=O)NC(=O)CSC[C@@H](C(=O)N[C@@H](C)C(N)=O)NC(=O)[C@H]([C@@H](C)O)NC(=O)[C@H](C(C)C)NC1=O` [Compound 1217] ({CH2CO}-NYD[Phe(3-Br)]V[Bip]R[NMeA][dL][Dab]LVTCA-NH2; thioether N-14), the IC50 under setting [1] was found to be 0.06 µM.

As for `CC(C)C[C@@H]1NC(=O)[C@H](Cc2c[nH]c3ccccc23)NC(=O)[C@H](CC(=O)O)NC(=O)[C@H](Cc2ccc(C#N)cc2)NC(=O)[C@H](CC(N)=O)NC(=O)CSC[C@@H](C(=O)NCC(N)=O)NC(=O)[C@H](CO)NC(=O)[C@H](C(C)C)NC(=O)[C@H](CC(C)C)NC(=O)[C@H](CC(N)=O)NC(=O)[C@@H](CC(C)C)NC(=O)[C@H](C)N(C)C(=O)[C@H](C(C)C)NC(=O)[C@H](Cc2ccc(-c3ccccc3)cc2)NC1=O` [Compound 1527] ({CH2CO}-N[Phe(4-CN)]DWL[Bip]V[NMeA][dL]NLVSCG-NH2; thioether N-14), the IC50 under setting [1] is 0.01 µM.

On to `CC(C)C[C@@H]1NC(=O)[C@H](CCN)NC(=O)[C@@H](CC(C)C)NC(=O)[C@H](C)N(C)C(=O)[C@H](CCCNC(N)=O)NC(=O)[C@H](Cc2ccc(-c3ccccc3)cc2)NC(=O)[C@H](C(C)C)NC(=O)[C@H](Cc2c[nH]c3ccccc23)NC(=O)[C@H](CC(=O)O)NC(=O)[C@H](Cc2ccc(O)cc2)NC(=O)[C@H](Cc2ccccc2)NC(=O)CSC[C@@H](C(=O)N[C@@H](C)C(N)=O)NC(=O)[C@H](C(C)O)NC(=O)[C@H](C(C)C)NC1=O` (stereo partly drawn) [Compound 2033] ({CH2CO}-FYDWV[Bip][Cit][NMeA][dL][Dab]LV[Thr(3ξ)]CA-NH2; thioether N-14), for which the IC50 under setting [1] stood at 0.03 µM.

For the compound `Cc1cccc(C[C@@H]2NC(=O)[C@H](CC(=O)O)NC(=O)[C@H](Cc3ccc(C(=O)O)cc3)NC(=O)[C@H](Cc3ccncc3)NC(=O)CSC[C@@H](C(=O)N[C@@H](C)C(N)=O)NC(=O)[C@H]([C@@H](C)O)NC(=O)[C@H](C(C)C)NC(=O)[C@H](CC(C)C)NC(=O)[C@H](CCN)NC(=O)[C@@H](CC(C)C)NC(=O)[C@H](C)N(C)C(=O)[C@H](CCCNC(N)=O)NC(=O)[C@H](Cc3ccc(-c4ccccc4)cc3)NC(=O)[C@H](C(C)C)NC2=O)c1` [Compound 1431] ({CH2CO}-[4Pal][Phe(4-COOH)]D[Phe(3-Me)]V[Bip][Cit][NMeA][dL][Dab]LVTCA-NH2; thioether N-14), the IC50 under setting [1] came to 0.01 µM.

In the case of `CC(C)C[C@@H]1NC(=O)[C@H](CCN)NC(=O)[C@@H](CC(C)C)NC(=O)[C@H](C)N(C)C(=O)[C@H](CCCNC(=N)N)NC(=O)[C@H](Cc2ccc(-c3ccccc3)cc2)NC(=O)[C@H](C(C)C)NC(=O)[C@H](Cc2c[nH]c3ccccc23)NC(=O)[C@H](CC(=O)O)NC(=O)[C@H](Cc2ccc(OCC(=O)O)cc2)NC(=O)[C@H](CN)NC(=O)CSC[C@@H](C(=O)N[C@@H](C)C(N)=O)NC(=O)[C@H]([C@@H](C)O)NC(=O)[C@H](C(C)C)NC1=O` [Compound 1450] ({CH2CO}-[Dap]Y(Carboxymethyl)DWV[Bip]R[NMeA][dL][Dab]LVTCA-NH2; thioether N-14), the IC50 under setting [1] worked out at 0.06 µM.

For the compound `CC(C)C[C@@H]1NC(=O)[C@H](CCCNC(=N)N)NC(=O)[C@@H](CC(C)C)NC(=O)[C@H](C)N(C)C(=O)[C@H](CCCNC(=N)N)NC(=O)[C@H](Cc2ccc(-c3ccccc3)cc2)NC(=O)[C@H](C(C)C)NC(=O)[C@H](Cc2c[nH]c3ccccc23)NC(=O)[C@H](CC(=O)O)NC(=O)[C@H](Cc2ccc(O)cc2)NC(=O)[C@H](Cc2ccccc2)NC(=O)CSC[C@@H](C(=O)N[C@@H](C)C(N)=O)NC(=O)[C@H](CO)NC(=O)[C@H](C(C)C)NC1=O` [Compound 1035] ({CH2CO}-FYDWV[Bip]R[NMeA][dL]RLVSCA-NH2; thioether N-14), the IC50 under setting [1] is 0.08 µM.

For the compound `CC(C)C[C@@H]1NC(=O)CSC[C@@H](C(=O)NCC(N)=O)NC(=O)[C@H](CO)NC(=O)[C@H](C(C)C)NC(=O)[C@H](CC(C)C)NC(=O)[C@H](CC(N)=O)NC(=O)[C@H](CC(N)=O)NC(=O)[C@H](C)N(C)C(=O)[C@H](C(C)C)NC(=O)[C@H](Cc2ccc(-c3ccccc3)cc2)NC(=O)[C@H](CC(C)C)NC(=O)[C@H](Cc2c[nH]c3ccccc23)NC(=O)[C@H](CC(=O)O)NC(=O)[C@H](Cc2ccc(O)cc2)NC1=O` [Compound 1815] ({CH2CO}-LYDWL[Bip]V[NMeA]NNLVSCG-NH2; thioether N-14), the IC50 under setting [1] was found to be 0.31 µM.

As for `CC(C)C[C@@H]1NC(=O)[C@H](CCCNC(=N)N)NC(=O)[C@@H](CC(C)C)NC(=O)[C@H](C)N(C)C(=O)[C@H](CCC(=O)O)NC(=O)[C@H](Cc2ccc(-c3ccccc3)cc2)NC(=O)[C@H](C(C)C)NC(=O)[C@H](Cc2c[nH]c3ccccc23)NC(=O)[C@H](CC(=O)O)NC(=O)[C@H](Cc2ccc(O)cc2)NC(=O)[C@H](CC(N)=O)NC(=O)CSC[C@@H](C(=O)N[C@@H](C)C(N)=O)NC(=O)[C@H](CCCN)NC(=O)[C@H](C(C)C)NC1=O` [Compound 1250] ({CH2CO}-NYDWV[Bip]E[NMeA][dL]RLV[Orn]CA-NH2; thioether N-14), the IC50 under setting [1] stood at 0.07 µM.

`Cc1cccc(C[C@@H]2NC(=O)[C@H](CC(=O)O)NC(=O)[C@H](Cc3ccc(C(=O)O)cc3)NC(=O)[C@H](Cc3ccc(OCC(=O)O)cc3)NC(=O)CSC[C@@H](C(N)=O)NC(=O)[C@H](CO)NC(=O)[C@H](C(C)C)NC(=O)[C@H](CC(C)C)NC(=O)[C@H](CC(N)=O)NC(=O)[C@@H](CC(C)C)NC(=O)[C@H](C)N(C)C(=O)[C@H](C(C)C)NC(=O)[C@H](Cc3ccc(-c4ccccc4)cc3)NC(=O)[C@H](CC(C)C)NC2=O)c1` [Compound 1596] ({CH2CO}-Y(Carboxymethyl)[Phe(4-COOH)]D[Phe(3-Me)]L[Bip]V[NMeA][dL]NLVSC-NH2; thioether N-14): the IC50 under setting [1] was determined as 0.02 µM.

As for `Cc1cccc(C[C@@H]2NC(=O)[C@H](CC(=O)O)NC(=O)[C@H](Cc3ccc(O)cc3)NC(=O)[C@H](Cc3ccccc3)NC(=O)CSC[C@@H](C(=O)N[C@@H](C)C(N)=O)NC(=O)[C@H]([C@@H](C)O)NC(=O)[C@H](C(C)C)NC(=O)[C@H](CC(C)C)NC(=O)[C@H](CCCNC(=N)N)NC(=O)[C@@H](CC(C)C)NC(=O)[C@H](C)N(C)C(=O)[C@H](CCCNC(=N)N)NC(=O)[C@H](Cc3ccc(-c4ccccc4)cc3)NC(=O)[C@H](C(C)C)NC2=O)c1` [Compound 1125] ({CH2CO}-FYD[Phe(3-Me)]V[Bip]R[NMeA][dL]RLVTCA-NH2; thioether N-14), the IC50 under setting [1] turned out to be 0.05 µM.

For `CC(C)C[C@@H]1NC(=O)[C@H](CCCNC(=N)N)NC(=O)[C@@H](CC(C)C)NC(=O)[C@H](C)N(C)C(=O)[C@H](CCCNC(=N)N)NC(=O)[C@H](Cc2ccc(-c3ccccc3)cc2)NC(=O)[C@H](C(C)C)NC(=O)[C@H](Cc2c[nH]c3ccccc23)NC(=O)[C@H](CC(=O)O)NC(=O)[C@H](Cc2ccc(C(=O)O)cc2)NC(=O)[C@H](Cc2ccncc2)NC(=O)CSC[C@@H](C(=O)N[C@@H](C)C(N)=O)NC(=O)[C@H]([C@@H](C)O)NC(=O)[C@H](C(C)C)NC1=O` [Compound 1077] ({CH2CO}-[4Pal][Phe(4-COOH)]DWV[Bip]R[NMeA][dL]RLVTCA-NH2; thioether N-14), the IC50 under setting [1] was determined as 0.05 µM.

`CC(C)C[C@@H]1NC(=O)[C@H](Cc2c[nH]c3ccccc23)NC(=O)[C@H](CC(=O)O)NC(=O)[C@H](Cc2ccc(OP(=O)(O)O)cc2)NC(=O)[C@H](Cc2ccccc2)NC(=O)CSC[C@@H](C(=O)N[C@@H](C)C(N)=O)NC(=O)[C@H](CO)NC(=O)[C@H](C(C)C)NC(=O)[C@H](CC(C)C)NC(=O)[C@H](CC(N)=O)NC(=O)[C@@H](C)NC(=O)[C@H](C)N(C)C(=O)[C@H](C(C)C)NC(=O)[C@H](Cc2ccc(-c3ccccc3)cc2)NC1=O` [Compound 1756] ({CH2CO}-F[pY]DWL[Bip]V[NMeA][dA]NLVSCA-NH2; thioether N-14) displayed an IC50 (Jurkat HPDL1 PD1 IC50 (uM) (Method 1)) of 0.03 µM.

For the compound `CC(C)C[C@@H]1NC(=O)[C@H](CCCN)NC(=O)[C@@H](CC(C)C)NC(=O)[C@H](C)N(C)C(=O)[C@H](CCCNC(N)=O)NC(=O)[C@H](Cc2ccc(-c3ccccc3)cc2)NC(=O)[C@H](C(C)C)NC(=O)[C@H](Cc2c[nH]c3ccccc23)NC(=O)[C@H](CC(=O)O)NC(=O)[C@H](Cc2ccc(O)cc2)NC(=O)[C@H](CC(N)=O)NC(=O)CSC[C@@H](C(=O)NCC(N)=O)NC(=O)[C@H]([C@@H](C)O)NC(=O)[C@H](C(C)C)NC1=O` [Compound 1235] ({CH2CO}-NYDWV[Bip][Cit][NMeA][dL][Orn]LVTCG-NH2; thioether N-14), the IC50 under setting [1] turned out to be 0.06 µM.

Regarding `CC(C)C[C@@H]1NC(=O)[C@H](CCCN)NC(=O)[C@@H](CC(C)C)NC(=O)[C@H](C)N(C)C(=O)[C@H](CCCNC(=N)N)NC(=O)[C@H](Cc2ccc(-c3ccccc3)cc2)NC(=O)[C@H](C(C)C)NC(=O)[C@H](Cc2c[nH]c3ccccc23)NC(=O)[C@H](CC(=O)O)NC(=O)[C@H](Cc2cnc[nH]2)NC(=O)[C@H](Cc2ccccc2)NC(=O)CSC[C@@H](C(=O)N[C@@H](C)C(N)=O)NC(=O)[C@H]([C@@H](C)O)NC(=O)[C@H](C(C)C)NC1=O` [Compound 1129] ({CH2CO}-FHDWV[Bip]R[NMeA][dL][Orn]LVTCA-NH2; thioether N-14), the IC50 under setting [1] was found to be 0.09 µM.

For the origin of these results see patent publication US20240409585A1, “MACROCYCLIC IMMUNOMODULATORS” (priority 2021, published 2024).
